# Source: paper PMC10463376, “Design, synthesis, in vitro anticancer, molecular docking and SAR studies of new series of pyrrolo[2,3-d]pyrimidine derivatives” (BMC Chemistry, 2023)
# Entries after “also recorded” stand apart in the source; their conditions may differ.
# Experiments:
# Assay type in all cases: cell-based, human
# [1] = system: P53; assay: RT-qPCR P53 mRNA in A549; conditions: A549, vs negative control
# Protocol: (§1) All of the extractions were conducted on ice with ice-cold reagents. Total RNA from the different cell lines was isolated using Trizol (Invitrogen; Life Technologies, USA) according to the method of Sthoeger et al.. The 260:280 ratios were measured to determine RNA quality after the isolation method was completed according to the manufacturer’s instructions. A high-capacity cDNA reverse transcription kit was used to produce complementary DNA (cDNA) (Applied Biosystems, USA). […] The relative gene expression method (i.e., ΔΔCT) was used to analyze the real-time PCR data, as explained in Applied Biosystem User Bulletin No. 2. Each sample and gene were normalized using the β-actin gene.
# [2] = system: BAX; assay: RT-qPCR BAX mRNA in A549; conditions: A549, vs negative control
# Protocol: as §1
# [3] = system: Bcl-2; assay: RT-qPCR Bcl-2 mRNA in A549; conditions: A549, vs negative control
# Protocol: as §1
# [4] = system: Casp-3; assay: RT-qPCR Casp-3 mRNA in A549
# Protocol: as §1
# [5] = system: DR4; assay: RT-qPCR DR4 mRNA in A549
# Protocol: as §1
# [6] = system: DR5; assay: RT-qPCR DR5 mRNA in A549
# Protocol: as §1
# [7] = system: MCF7 cells; assay: Flow cytometric cell cycle analysis (PI), MCF7; conditions: MCF7, 24 h, IC50 concentration; for cell cycle arrest (phase): vs untreated control; for percentage of cells in the G0/G1 phase: control 11.43%
# Protocol: Herein, the negative control was the untreated MCF7 cells and Doxorubicin was used as a positive control. Firstly, after the treatment time of 24 h, MCF7 cells were centrifuged at 1000 rpm for 5 min at 4 °C. The supernatant was discarded and the cells pellet were washed in phosphate-buffered saline (PBS). Then, the cells pellet were centrifuged at 1000 rpm for another 5 min. Afterward, the cells were collected in a single-cell suspension and maintained in 70% ethanol overnight on ice. Then, cells were washed with 1 ml PBS. At last, 200 µl 1 × propidium iodide (PI) mixture was added to the cells pellet in the dark at room temperature for 30 min. Then, the DNA content was analyzed by subjecting the cells to an Epics XL-MCL flow cytometer (Beckman Coulter, Miami, FL). The distribution of cells at different phases of the cell cycle was determined by Multi-cycle software (Phoenix Flow Systems, San Diego, CA).
# [8] = system: breast cancer cell line (MCF-7); assay: DNA fragmentation assay, MCF7; conditions: MCF7, IC50, 24 h, vs negative control (P < 0.01); order 14a > 18b > positive > 16b > 14b
# Protocol: (§2) The DNA fragmentation assay in a pancreatic cell line (Paca2), breast cancer cell lines (MCF-7) and lung cell line (A549) was performed in concordance with the premises established by Yawata with some modifications. Briefly, after 24 h of exposure of Paca2, MCF-7 and A549 cancer cell lines to the prepared compounds in different Petri dishes (60 × 15 mm, Greiner), the cells were suspended and homogenized in 1 ml of medium and then centrifuged for 10 min at 900 rpm. The genomic DNA was extracted as shown in Yawata. About 1 × 10^6 cells of each tested cancer cell line were treated with the IC50 values of the tested compounds. All the cells were collected via trypsinization and washed with Dulbecco`s Phosphate Buffered Saline. Then, the cells were treated with the lysis buffer containing 5 mM ethylenediaminetetraacetic acid (EDTA), 10 mM Tris (pH 7.4), 0.5% Triton X-100 and 150 mM NaCl for 35 min on ice. After that, the lysates were vortexed and centrifuged for 20 min at 10.000 xg. The fragmented DNA was extracted from the supernatant with an equal volume of isoamyl alcohol: chloroform: neutral phenol mixture (1:24:25). Finally, the percentage of fragmented DNA was determined by performing gel electrophoresis using 2% agarose gel containing 0.1 μg/ml ethidium bromide.
# Pancreatic cancer cell line (Paca2), breast cancer cell line (MCF-7) and lung cancer cell line (A549) were used to determine the percentage of DNA fragmentation after the treatment with IC50 of the tested compounds. The selected cells were suspended in 0.5 ml of lysis buffer containing 1 mM EDTA, 10 mM Tris–HCl (pH 8) and 0.2% triton X-100. Then, the cells were centrifuged at 10.000 rpm for 20 min at 4 °C. After removing the supernatant, the pellets were re-suspended in 0.5 ml of lysis buffer. Then, 0.5 ml of 25% tri-chloroacetic acid (TCA) was added to the pellets (P) and the supernatants (S), and incubated for 24 h at 4 °C. Afterwards, the cells were centrifuged at 4 °C for 25 min at 10,000 rpm and the pellets were suspended in […] of 5% TCA, followed by incubation at 80 °C for 20 min. Finally, […] of Diphenyl Amine (DPA) solution [[…] of sulfuric acid, 150 mg DPA in 10 ml glacial acetic acid, and […] acetaldehyde (16 mg/ml)] was added to each cell sample and kept at room temperature for 24 h. The percentage of fragmented DNA was measured from the absorbance reading at 600 nm wavelength using the following formula:
# % Fragmented DNA = [OD(S)/[OD(S) + OD(P)] × 100 (OD: optical density, S: supernatant, P: pellet).
# [9] = system: Bcl-2; assay: RT-qPCR Bcl-2 mRNA in MCF7; conditions: MCF7, vs negative control
# Protocol: as §1
# [10] = system: DR5; assay: RT-qPCR DR5 mRNA in MCF7; conditions: MCF7, vs negative control
# Protocol: as §1
# [11] = system: pancreatic cell line (Paca2); assay: DNA fragmentation assay, Paca2; conditions: Paca2, IC50, 24 h, vs negative control (P < 0.01); 17 higher than Dox.
# Protocol: as §2, with “After that, the lysates were vortexed and centrifuged for 20 min at 10.000 xg. The fragmented DNA was extracted from the supernatant with an equal volume of isoamyl alcohol: chloroform: neutral phenol mixture (1:24:25).” left out
# Pancreatic cancer cell line (Paca2), breast cancer cell line (MCF-7) and lung cancer cell line (A549) were used to determine the percentage of DNA fragmentation after the treatment with IC50 of the tested compounds. […] The percentage of fragmented DNA was measured from the absorbance reading at 600 nm wavelength using the following formula: […]
# [12] = system: BAX; assay: RT-qPCR BAX mRNA in Paca2; conditions: 17 vs both Dox. and negative control
# Protocol: as §1
# [13] = system: Bcl-2; assay: RT-qPCR Bcl-2 mRNA in Paca2; conditions: 17 vs both Dox. and negative control
# Protocol: as §1
# [14] = system: CDK4; assay: RT-qPCR CDK4 mRNA in Paca2; conditions: 17 vs both Dox. and negative control
# Protocol: as §1
# [15] = system: Casp-3; assay: RT-qPCR Casp-3 mRNA in Paca2; conditions: 17 vs both Dox. and negative control
# Protocol: as §1
# [16] = system: DR4; assay: RT-qPCR DR4 mRNA in Paca2; conditions: 17 vs both Dox. and negative control
# Protocol: as §1
# [17] = system: DR5; assay: RT-qPCR DR5 mRNA in Paca2; conditions: 17 vs both Dox. and negative control
# Protocol: as §1
structure (smiles),measurement,setting,value
"COc1ccc(-c2c(Cl)n(-c3ccc(Cl)cc3Cl)c3ncnc(Cl)c23)cc1OC [Compound 4b, 4,6-dichloro-7-(2,4-dichlorophenyl)-5-(3,4-dimethoxyphenyl)-7H-pyrrolo[2,3-d]pyrimidine]",P53 mRNA level,[1],up-regulated
same,BAX mRNA level,[2],up-regulated
same,Bcl-2 mRNA level,[3],down-regulated
same,Casp-3 mRNA level,[4],up-regulated
same,DR4 mRNA level,[5],up-regulated
same,DR5 mRNA level,[6],up-regulated
"NNc1ncnc2c1c(-c1ccc(Br)cc1)c(Cl)n2-c1ccc(Cl)cc1Cl [Compound 14a, 5-(4-bromophenyl)-6-chloro-7-(2,4-dichlorophenyl)-4-hydrazineyl-7H-pyrrolo[2,3-d]pyrimidine]",cell cycle arrest (phase),[7],G1 and S phases; also recorded: G1/S phase
same,percentage of cells in the G0/G1 phase,[7],68.60%
same,DNA fragmentation rate,[8],increased significantly
same,Bcl-2 mRNA level,[9],down-regulated
same,DR5 mRNA level,[10],increased; also recorded: up-regulated
"COc1ccc(-c2c(Cl)n(-c3ccc(Cl)cc3Cl)c3ncnc(NN)c23)cc1OC [Compound 14b, 6-chloro-7-(2,4-dichlorophenyl)-5-(3,4-dimethoxyphenyl)-4-hydrazineyl-7H-pyrrolo[2,3-d]pyrimidine]",cell cycle arrest (phase),[7],G1 and S phases; also recorded: G1/S phase
same,percentage of cells in the G0/G1 phase,[7],85.98%
same,DNA fragmentation rate,[8],increased significantly
same,Bcl-2 mRNA level,[9],down-regulated
same,DR5 mRNA level,[10],increased; also recorded: up-regulated
"COc1ccc(-c2c(Cl)n(-c3ccc(Cl)cc3Cl)c3ncnc(N4CCN(C)CC4)c23)cc1OC [Compound 16b, 6-chloro-7-(2,4-dichlorophenyl)-5-(3,4-dimethoxyphenyl)-4-(4-methylpiperazin-1-yl)-7H-pyrrolo[2,3-d]pyrimidine]",DNA fragmentation rate,[8],increased significantly
same,Bcl-2 mRNA level,[9],down-regulated
same,DR5 mRNA level,[10],increased
"CN1CCN(c2nc(C(Cl)(Cl)Cl)nc3c2c(-c2ccc(Br)cc2)c(Cl)n3-c2ccc(Cl)cc2Cl)CC1 [Compound 17, 5-(4-bromophenyl)-6-chloro-7-(2,4-dichlorophenyl)-4-(4-methylpiperazin-1-yl)-2-(trichloromethyl)-7H-pyrrolo[2,3-d]pyrimidine]",DNA fragmentation rate,[11],increased significantly
same,BAX mRNA level,[12],up-regulated
same,Bcl-2 mRNA level,[13],down-regulated
same,CDK4 mRNA level,[14],lowered
same,Casp-3 mRNA level,[15],up-regulated
same,DR4 mRNA level,[16],up-regulated
same,DR5 mRNA level,[17],up-regulated
"COc1ccc(-c2c(Cl)n(-c3ccc(Cl)cc3Cl)c3ncnc(N4CCOCC4)c23)cc1OC [Compound 18b, 4-(6-chloro-7-(2,4-dichlorophenyl)-5-(3,4-dimethoxyphenyl)-7H-pyrrolo[2,3-d]pyrimidin-4-yl)morpholine]",DNA fragmentation rate,[8],increased significantly
same,Bcl-2 mRNA level,[9],down-regulated
same,DR5 mRNA level,[10],increased; also recorded: up-regulated
"COc1cccc2c1C(=O)c1c(O)c3c(c(O)c1C2=O)C[C@@](O)(C(=O)CO)C[C@@H]3O[C@H]1C[C@H](N)[C@H](O)[C@H](C)O1 [Dox, Doxorubicin, reference compound]",DNA fragmentation rate,[11],increased significantly
same,Bcl-2 mRNA level,[9],down-regulated
same,DR5 mRNA level,[10],increased
same,BAX mRNA level,[12],no significant difference
same,Bcl-2 mRNA level,[13],no significant difference
same,CDK4 mRNA level,[14],no significant difference
same,Casp-3 mRNA level,[15],no significant difference
same,DR4 mRNA level,[16],no significant difference
same,DR5 mRNA level,[17],no significant difference
same,P53 mRNA level,[1],up-regulated
same,BAX mRNA level,[2],up-regulated
same,Bcl-2 mRNA level,[3],down-regulated
same,Casp-3 mRNA level,[4],up-regulated
same,DR4 mRNA level,[5],up-regulated
same,DR5 mRNA level,[6],up-regulated
